Source: PubChem BioAssay (NCI)
Values after ≈ are worked out from the molar mass of the structure shown. Values joined by “and” are separate entries in the source; they are usually repeats but may differ in a detail not shown here. Equal entries are not always repeated.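 Dose response: 5 concentrations. Exposure: 48 h. Format: 96-well plates. Endpoint: linear interpolation; highest concentration if not reached. GI50 is the concentration that inhibits growth by half. TGI denotes the concentration required for complete inhibition of growth.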

Legend:
Experiment in all cases: growth of human tumour cells (NCI), 48 h
A549 NSCLC = test system: A549 NSCLC
NCI-H460 lung = test system: NCI-H460 lung
TK-10 renal = test system: TK-10 renal
786-0 renal = test system: 786-0 renal
SF-539 CNS = test system: SF-539 CNS
U251 CNS = test system: U251 CNS
MOLT-4 leukemia = test system: MOLT-4 leukemia
SR leukemia = test system: SR leukemia
HOP-62 NSCLC = test system: HOP-62 NSCLC
LOX IMVI melanoma = test system: LOX IMVI melanoma
NCI-H23 lung = test system: NCI-H23 lung
A498 renal = test system: A498 renal
PC-3 prostate = test system: PC-3 prostate

SMILES | TGI (A549 NSCLC) | TGI (NCI-H460 lung) | TGI (TK-10 renal) [µM] | TGI (786-0 renal) [µM] | TGI (SF-539 CNS) | TGI (U251 CNS) | TGI (MOLT-4 leukemia) | TGI (SR leukemia) [µM] | TGI (HOP-62 NSCLC) | TGI (LOX IMVI melanoma) [µM] | TGI (NCI-H23 lung) | TGI (A498 renal) | GI50 (NCI-H460 lung) [µg/mL] | GI50 (SF-539 CNS) | GI50 (U251 CNS) [µg/mL] | GI50 (A498 renal) [µg/mL] | GI50 (HOP-62 NSCLC) [µg/mL] | GI50 (NCI-H23 lung) [µM] | TGI (PC-3 prostate) [µM]
COC(=O)CC(=O)OC1C[C@@H]2CCC3C(C)(C)CCC[C@]3(C)C23CC[C@@]1(C)C3 (stereo not given in full) | 65.1 µM | 37.5 µM | 34.3 | 29.9 | 39.1 µM | 31.2 µM | > 100 µM | > 100 | 34.1 µM | 32.3 | 33.5 µM | – | – | – | – | – | – | – | –
COc1cccc(NC(=O)/C(CS(=O)(=O)CCC(C(C)=O)C(C)=O)=N\NC(C)(C)C)c1 | > 100 µM | > 100 µM | > 100 | > 100 | > 100 µM | > 100 µM | > 100 µM | – | > 100 µM | > 100 | > 100 µM | > 100 µM | – | – | – | – | – | – | –
CCCC(O)c1ccc2[nH]c3c(C)cc([N+](=O)[O-])c(C)c3c2c1 (stereo not given) | > 100 µM | > 100 µM | > 100 | > 100 | > 100 µM | – | > 100 µM | > 100 | > 100 µM | > 100 | > 100 µM | – | – | – | – | – | – | – | –
Cc1c2ccncc2c(C)c2c1[nH]c1ccc(O)cc12 | 0.397 µg/mL | 0.0467 µg/mL | – | – | 1.29 µg/mL | 0.35 µg/mL | 0.0671 µg/mL | – | 0.206 µg/mL | – | 84.1 mM and 0.0172 µg/mL | 1.9 µg/mL | 0.0157 (≈ 0.0598 µM) | 0.263 µg/mL | 0.042 (≈ 0.16 µM) | 0.501 (≈ 1.91 µM) | 0.0255 (≈ 0.0972 µM) | 11800 | –
C/C(=C\COP(=O)(O)OP(=O)(O)O)CC/C=C(\C)CNc1c(F)c(F)c(F)c(F)c1F | > 100 µM | > 100 µM | > 100 | > 100 | > 100 µM | > 100 µM | > 100 µM | 0.308 | > 100 µM | > 100 | > 100 µM | – | – | – | – | – | – | – | > 100
COC1=CC(=O)C2(C=C1OC)OC[C@H]1Oc3c(ccc4c3C=CC(C)(C)O4)C(=O)[C@H]12 (stereo not given in full) | > 100 µM | > 100 µM | > 100 | > 100 | > 100 µM | > 100 µM | 85.6 µM | – | > 100 µM | > 100 | 95.3 µM | > 100 µM | – | – | – | – | – | – | –
O=C1CCNC/C1=C\c1ccccc1 | 92.2 µM | > 100 µM | 61.2 | 29 | 42.3 µM | 38 µM | > 100 µM | > 100 | 79 µM | 35.5 | 34.4 µM | > 100 µM | – | – | – | – | – | – | –
CNC(=O)OC1/C(C)=C\C(C)C(O)C(OC)CC(C)CC2=C(OC)C(=O)C=C(C2=O)N(C)C(=O)/C(C)=C/C=C\C1OC (stereo not given) | 43.7 µM | 39.7 µM | 22 | 18.2 | 23.3 µM | 31.4 µM | 3.74 µM | – | 24 µM | 16.6 | 15 µM | 42.8 µM | – | < 0.1 µM | – | – | – | – | 26
Cc1ccccc1NC(=O)C(=O)C(C(=O)c1ccccc1F)C1OC(=O)c2ccccc21 (stereo not given) | > 100 µM | > 100 µM | > 100 | 41.6 | 27.4 µM | 60.6 µM | 52.4 µM | – | 44.4 µM | 33.6 | 28.2 µM | > 100 µM | – | – | – | – | – | – | –
O=S(c1ccc(O)cc1)c1ccc(O)cc1 | > 100 µM | > 100 µM | > 100 | > 100 | > 100 µM | > 100 µM | > 100 µM | – | > 100 µM | > 100 | > 100 µM | – | – | – | – | – | – | – | –
CN(C)CCCn1c(-c2ccc(Br)cc2)csc1=Nc1ccccc1 | 48.9 µM | 39.4 µM | 31.7 | – | 34 µM | > 100 µM | 59.2 µM | 46.8 | 26.4 µM | – | 27.8 µM | 28.3 µM | – | – | – | – | – | – | 25.2
CCCOC(=O)CCC(NC(=O)c1ccc(Nc2nc3ccccc3nc2-c2cccs2)cc1)C(=O)OCCC (stereo not given) | > 100 µM | – | > 100 | – | > 100 µM | > 100 µM | > 100 µM | > 100 | > 100 µM | > 100 | > 100 µM | – | – | – | – | – | – | – | –
COc1ccc(N2C(=O)[C@@H]3[C@@H]4CC(C)CC[C@@H]4c4c([nH]c5ccccc45)[C@@H]3C2=O)cc1 (stereo not given in full) | > 68.3 µM | 59.3 µM | 45.6 | 20.6 | 25.9 µM | 28.8 µM | 61.3 µM | > 25.9 | 32.8 µM | > 87.6 | > 47.5 µM | 35.9 µM | – | – | – | – | – | – | –
CC(=O)N(C(=O)CC(=O)N1N=C(C)C(N=Nc2cccc([N+](=O)[O-])c2)C1=O)c1ccc(Cl)cc1 (stereo not given) | > 10 µM | – | > 10 | > 10 | > 10 µM | > 10 µM | – | > 10 | > 10 µM | > 10 | > 10 µM | – | – | – | – | – | – | – | > 10
CC(=O)OC1CCC2(C)C(CCC3C2CCC2(C)C(c4ccc(=O)oc4)C(OC(C)=O)CC32O)C1 (stereo not given) | 0.0157 µM | 0.0197 µM | – | – | 0.015 µM | 0.137 µM | 0.0227 µM | – | 0.0331 µM | 0.38 | 0.0296 µM | 0.161 µM | – | – | – | – | – | – | –
CCOC(=O)CN(CC)C(=O)NC12CC3CC(CC(C3)C1)C2 | > 750 µM | 558 µM | – | – | 659 µM | > 536 µM | 436 µM | – | 602 µM | 409 | 560 µM | 413 µM | – | – | – | – | – | – | –
Cc1nc2nnc(CCCCCCCCc3nnc4nc(C)[nH]n34)n2[nH]1 | > 100 µM | > 100 µM | > 100 | > 100 | > 100 µM | > 100 µM | > 100 µM | – | > 100 µM | > 100 | > 100 µM | > 100 µM | – | – | – | – | – | – | > 100
CCn1c(=O)c2nc(SC)sc2n(-c2ccccc2)c1=S | > 100 µM | > 100 µM | > 100 | > 100 | > 100 µM | > 100 µM | > 100 µM | > 100 | > 100 µM | > 100 | > 100 µM | – | – | – | – | – | – | – | > 100
O=[N+]([O-])c1ccc(N=P(c2ccccc2)(c2ccccc2)c2ccccc2)n2nnnc12 | > 100 µM | > 100 µM | > 100 | > 100 | 50.9 µM | > 100 µM | > 100 µM | – | 90.2 µM | > 100 | > 100 µM | > 100 µM | – | – | – | – | – | – | –
